This note sets out measurements from patent US9969617B2, “Material system containing endoperoxide with adaption of decomposition, and applications” (priority 2009, dated 2018).

For data set [1] the following is noted: PVB matrix, 37° C.
Source text: The entire decomposition curve is usually determined indirectly via the measurement of the fluorescence of the DMN molecules which reappear during decomposition of the endoperoxides.
Another data set deals with cancer cells. Nature of the data set: killing of cancer cells, cytostatic effect confirmed using the crystal violet test. Type of data set: cell-based. Particulars: endoperoxide in liposomes. From the text: A further molecule 22 forming endoperoxide has an additional hydroxyl group which with the cage wall can form hydrogen bridges (preferably in PVB nanoparticles, in PVB films or ethyl cellulose nanoparticles), which likewise causes an increase in the decomposition times.

In the case of `CC12C=CC(C)(OO1)c1ccccc12` [DMN endoperoxide, 1,4-dimethylnaphthalene endoperoxide], the “decomposition time of curve 27, factor longer than DMN in liquids” value in data set [1] (after renewed endoperoxide formation, slow component (curve 27)) was above 30 factor. Besides, in data set [1] (curve 24 versus DMN in organic solvent), the “half-life from curve 24 greater than that for DMN in organic solvent” value was “approximately 30%”. Further, in data set [1] (first decomposition, slow component (curve 25), compared with DMN in organic solvent), the “decomposition time from curve 25, factor greater” value is around 6 factor. For the same molecule, the “killing of the cancer cells” value with cancer cells was “not”.

Take `Cc1cccc2c1C1(C)C=CC2(C)OO1` (centres unmarked) [TMN endoperoxide]: the “killing of the cancer cells” value in the data set on cancer cells is on record as “killing of the cancer cells was ascertained”.
